Assay results taken from patent US12552775B2, “Compounds and uses thereof” (Foghorn Therapeutics Inc., priority 2020, dated 2026).

Experiments:
[1] = molecular target: T1, HiBit-BRG1 fusion protein (Homo sapiens, UniProt P51532); test: HiBiT-BRG1 cell-based degradation assay (Nano-Glo HiBiT Lytic Detection, 24 h); details: stable HeLa cell line expressing HiBit-BRG1 and LgBit, top dose 30 μM, read-out: BRG1 HiBit Degradation Maximum (%)
T1 construct: expressed in transfected cells
In short: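 HeLa cells stably expressing HiBiT-BRG1 plus LgBiT were treated with 10-point 3-fold compound dilutions (top 30 μM final) for 24 h. Lytic Nano-Glo HiBiT luminescence was read. % degradation was normalised between DMSO (high control) and 2 μM of a reference BRM/BRG1 degrader (low control).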

HiBit-BRM fusion protein = molecular target: T2, HiBit-BRM fusion protein (Homo sapiens, UniProt P51531); test: HiBiT-BRM cell-based degradation assay (Nano-Glo HiBiT Lytic Detection, 24 h); details: stable HeLa cell line expressing HiBiT-BRM, top dose 30 μM
T2 construct: expressed in transfected cells
T2 sequence (P51531 whole entry, the tested form may be a part): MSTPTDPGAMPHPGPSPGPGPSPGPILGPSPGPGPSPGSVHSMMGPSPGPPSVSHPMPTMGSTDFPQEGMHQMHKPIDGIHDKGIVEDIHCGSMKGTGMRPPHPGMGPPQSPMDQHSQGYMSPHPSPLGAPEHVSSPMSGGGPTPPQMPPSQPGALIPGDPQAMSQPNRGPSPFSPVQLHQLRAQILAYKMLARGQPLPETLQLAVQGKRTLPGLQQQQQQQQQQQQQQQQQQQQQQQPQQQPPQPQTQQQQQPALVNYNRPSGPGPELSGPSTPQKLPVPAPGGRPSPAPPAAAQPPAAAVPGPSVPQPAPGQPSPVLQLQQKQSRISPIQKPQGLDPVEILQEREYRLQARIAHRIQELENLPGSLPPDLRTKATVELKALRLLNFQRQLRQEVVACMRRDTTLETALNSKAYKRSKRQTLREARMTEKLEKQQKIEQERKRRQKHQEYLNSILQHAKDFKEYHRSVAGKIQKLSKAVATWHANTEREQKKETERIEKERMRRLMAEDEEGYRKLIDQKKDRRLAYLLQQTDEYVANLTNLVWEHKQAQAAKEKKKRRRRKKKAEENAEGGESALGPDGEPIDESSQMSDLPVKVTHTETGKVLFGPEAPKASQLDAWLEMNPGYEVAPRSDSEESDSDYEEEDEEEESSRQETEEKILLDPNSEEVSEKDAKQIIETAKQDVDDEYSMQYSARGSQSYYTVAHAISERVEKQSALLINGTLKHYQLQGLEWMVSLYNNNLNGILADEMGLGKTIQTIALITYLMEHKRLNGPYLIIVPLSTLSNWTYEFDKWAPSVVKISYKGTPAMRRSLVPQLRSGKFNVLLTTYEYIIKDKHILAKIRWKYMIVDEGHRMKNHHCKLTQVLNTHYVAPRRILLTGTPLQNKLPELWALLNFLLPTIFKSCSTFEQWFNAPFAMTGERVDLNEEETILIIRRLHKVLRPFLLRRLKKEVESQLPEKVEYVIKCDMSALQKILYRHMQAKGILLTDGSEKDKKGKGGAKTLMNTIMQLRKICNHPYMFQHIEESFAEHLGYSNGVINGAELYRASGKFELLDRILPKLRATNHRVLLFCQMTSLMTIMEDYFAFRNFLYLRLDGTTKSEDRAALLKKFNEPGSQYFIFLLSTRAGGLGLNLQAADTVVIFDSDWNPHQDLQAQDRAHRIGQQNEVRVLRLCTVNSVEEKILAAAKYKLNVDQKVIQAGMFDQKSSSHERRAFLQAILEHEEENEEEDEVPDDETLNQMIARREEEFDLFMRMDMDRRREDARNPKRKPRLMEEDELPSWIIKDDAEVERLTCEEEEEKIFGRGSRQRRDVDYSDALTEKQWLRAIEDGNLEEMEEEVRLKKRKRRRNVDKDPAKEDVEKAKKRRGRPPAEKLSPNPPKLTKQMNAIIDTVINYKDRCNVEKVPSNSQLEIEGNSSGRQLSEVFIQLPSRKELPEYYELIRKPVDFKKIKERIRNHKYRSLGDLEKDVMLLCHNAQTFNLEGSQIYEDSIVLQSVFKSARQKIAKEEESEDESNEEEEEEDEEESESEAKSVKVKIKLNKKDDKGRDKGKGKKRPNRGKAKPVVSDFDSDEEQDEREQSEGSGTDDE
In short: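 Stable HiBiT-BRM HeLa cells were treated with 10-point 3-fold serial dilutions (30 μM final top dose, duplicate) for 24 h, then lysed with LgBiT-containing detection reagent and luminescence read. Degradation % was normalised to DMSO (high control) and 2 μM reference BRM/BRG1 degrader (low control).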

T1 sequence (P51532 whole entry, the tested form may be a part): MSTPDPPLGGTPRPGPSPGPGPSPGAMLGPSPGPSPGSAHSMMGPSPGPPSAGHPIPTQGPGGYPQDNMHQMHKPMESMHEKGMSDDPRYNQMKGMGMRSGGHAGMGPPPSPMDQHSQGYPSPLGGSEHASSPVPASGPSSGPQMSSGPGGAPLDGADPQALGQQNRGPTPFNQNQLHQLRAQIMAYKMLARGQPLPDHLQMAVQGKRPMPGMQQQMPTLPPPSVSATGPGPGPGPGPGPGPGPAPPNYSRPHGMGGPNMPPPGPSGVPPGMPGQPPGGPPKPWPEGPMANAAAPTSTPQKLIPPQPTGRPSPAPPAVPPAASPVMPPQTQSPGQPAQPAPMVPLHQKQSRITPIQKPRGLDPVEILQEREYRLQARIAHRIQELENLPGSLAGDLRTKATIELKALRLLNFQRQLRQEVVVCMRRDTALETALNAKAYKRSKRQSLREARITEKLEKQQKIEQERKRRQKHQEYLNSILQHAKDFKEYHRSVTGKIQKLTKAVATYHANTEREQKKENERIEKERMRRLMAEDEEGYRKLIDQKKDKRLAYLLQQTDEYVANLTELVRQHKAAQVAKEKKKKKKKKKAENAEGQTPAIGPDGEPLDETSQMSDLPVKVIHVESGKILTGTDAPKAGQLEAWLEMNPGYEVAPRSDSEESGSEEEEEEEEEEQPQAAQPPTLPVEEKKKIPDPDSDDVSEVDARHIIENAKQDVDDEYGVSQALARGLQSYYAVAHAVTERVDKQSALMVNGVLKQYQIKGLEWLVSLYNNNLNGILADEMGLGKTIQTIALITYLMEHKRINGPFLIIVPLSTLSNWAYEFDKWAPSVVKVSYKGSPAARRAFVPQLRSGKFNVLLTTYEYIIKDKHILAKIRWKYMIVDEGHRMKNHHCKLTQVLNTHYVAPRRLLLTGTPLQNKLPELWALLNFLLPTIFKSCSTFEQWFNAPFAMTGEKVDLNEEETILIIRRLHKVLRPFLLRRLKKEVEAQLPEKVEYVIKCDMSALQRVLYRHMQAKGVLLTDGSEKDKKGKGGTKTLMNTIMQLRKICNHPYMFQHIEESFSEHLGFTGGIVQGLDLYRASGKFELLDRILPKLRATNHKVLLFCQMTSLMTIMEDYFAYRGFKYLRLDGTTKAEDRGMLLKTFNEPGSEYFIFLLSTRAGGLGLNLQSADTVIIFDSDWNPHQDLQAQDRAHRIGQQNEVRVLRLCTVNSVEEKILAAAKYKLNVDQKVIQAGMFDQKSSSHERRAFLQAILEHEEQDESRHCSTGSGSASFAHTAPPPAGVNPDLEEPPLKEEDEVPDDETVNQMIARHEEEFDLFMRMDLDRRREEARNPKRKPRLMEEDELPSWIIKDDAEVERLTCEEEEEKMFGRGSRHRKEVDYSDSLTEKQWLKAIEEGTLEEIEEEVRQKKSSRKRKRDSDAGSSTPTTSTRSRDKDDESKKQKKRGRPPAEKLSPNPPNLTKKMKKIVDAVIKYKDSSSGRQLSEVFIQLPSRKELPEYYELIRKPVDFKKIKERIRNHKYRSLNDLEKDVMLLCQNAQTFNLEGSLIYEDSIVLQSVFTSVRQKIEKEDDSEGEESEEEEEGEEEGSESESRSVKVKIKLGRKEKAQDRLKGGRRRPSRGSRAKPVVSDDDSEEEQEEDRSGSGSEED

| SMILES | Dmax [1] [%] | BRM HiBit Degradation Maximum (%) (HiBit-BRM fusion protein) |
| --- | --- | --- |
| Nc1nnc(-c2ccccc2O)cc1OCCC12CC(NC(=O)C3CCN(CCOc4ccc5c(c4)C(=O)N(C4CCC(=O)NC4=O)C5=O)CC3)(C1)C2 (stereo not shown) [Compound 32, N-(3-(2-((3-amino-6-(2-hydroxyphenyl)pyridazin-4-yl)oxy)ethyl)bicyclo[1.1.1]pentan-1-yl)-1-(2-((2-(2,6-dioxopiperidin-3-yl)-1,3-dioxoisoindolin-5-yl)oxy)ethyl)piperidine-4-carboxamide] | < 50 | B (“B” indicates maximum degradation ≥ 50%) |
| Cc1ncsc1-c1ccc(CNC(=O)[C@@H]2C[C@@H](O)CN2C(=O)[C@@H](NC(=O)CCCC(=O)NC23CC(CCOc4cc(-c5ccccc5O)nnc4N)(C2)C3)C(C)(C)C)cc1 [Compound 46, N1-(3-(2-((3-amino-6-(2-hydroxyphenyl)pyridazin-4-yl)oxy)ethyl)bicyclo[1.1.1]pentan-1-yl)-N5-((S)-1-((2S,4R)-4-hydroxy-2-((4-(4-methylthiazol-5-yl)benzyl)carbamoyl)pyrrolidin-1-yl)-3,3-dimethyl-1-oxobutan-2-yl)glutaramide] | < 50 | B (“B” indicates maximum degradation ≥ 50%) |
| Nc1nnc(-c2ccccc2O)cc1OCC12CC(CNC(=O)CCN3CCN(c4ccc5c(c4)C(=O)N(C4CCC(=O)NC4=O)C5=O)CC3)(C1)C2 (stereo not shown) [Compound 16, N-((3-(((3-amino-6-(2-hydroxyphenyl)pyridazin-4-yl)oxy)methyl)bicyclo[1.1.1]pentan-1-yl)methyl)-3-(4-(2-(2,6-dioxopiperidin-3-yl)-1,3-dioxoisoindolin-5-yl)piperazin-1-yl) propanamide] | < 50 | C (“C” indicates maximum degradation < 50%) |
| Nc1nnc(-c2ccccc2O)cc1OCC12CC(C(=O)NCCCC#Cc3ccc4c(c3)C(=O)N(C3CCC(=O)NC3=O)C4=O)(C1)C2 (stereo not shown) [Compound 89, 3-(((3-amino-6-(2-hydroxyphenyl)pyridazin-4-yl)oxy)methyl)-N-(5-(2-(2,6-dioxopiperidin-3-yl)-1,3-dioxoisoindolin-5-yl)pent-4-yn-1-yl)bicyclo[1.1.1]pentane-1-carboxamide] | < 50 | C (“C” indicates maximum degradation < 50%) |
| Nc1nnc(-c2ccccc2O)cc1OCC12CC(C(=O)N3CCN(CC4CN(c5ccc6c(c5)C(=O)N(C5CCC(=O)NC5=O)C6=O)C4)CC3)(C1)C2 (stereo not shown) [Compound 102, 5-(3-((4-(3-(((3-amino-6-(2-hydroxyphenyl)pyridazin-4-yl)oxy)methyl)bicyclo[1.1.1]pentane-1-carbonyl)piperazin-1-yl)methyl)azetidin-1-yl)-2-(2,6-dioxopiperidin-3-yl)isoindoline-1,3-dione] | < 50 | B (“B” indicates maximum degradation ≥ 50%) |
| Cc1ncsc1-c1ccc(CNC(=O)[C@@H]2C[C@@H](O)CN2C(=O)[C@@H](NC(=O)COCCOCCNC(=O)C23CC(COc4cc(-c5ccccc5O)nnc4N)(C2)C3)C(C)(C)C)cc1 [Compound 68, (2S,4R)-1-((S)-1-(3-(((3-amino-6-(2-hydroxyphenyl)pyridazin-4-yl)oxy)methyl)bicyclo[1.1.1]pentan-1-yl)-12-(tert-butyl)-1,10-dioxo-5,8-dioxa-2,11-diazatridecan-13-oyl)-4-hydroxy-N-(4-(4-methylthiazol-5-yl)benzyl)pyrrolidine-2-carboxamide; formic acid] | < 50 | C (“C” indicates maximum degradation < 50%) |
| Cc1ncsc1-c1ccc(CNC(=O)[C@@H]2C[C@@H](O)CN2C(=O)[C@@H](NC(=O)COCCOCCOCCOCC(=O)NC23CC(CCOc4cc(-c5ccccc5O)nnc4N)(C2)C3)C(C)(C)C)cc1 [Compound 45, N1-(3-(2-((3-amino-6-(2-hydroxyphenyl)pyridazin-4-yl)oxy)ethyl)bicyclo[1.1.1]pentan-1-yl)-N14-((S)-1-((2S,4R)-4-hydroxy-2-((4-(4-methylthiazol-5-yl)benzyl)carbamoyl)pyrrolidin-1-yl)-3,3-dimethyl-1-oxobutan-2-yl)-3,6,9,12-tetraoxatetradecanediamide] | < 50 | B (“B” indicates maximum degradation ≥ 50%) |
| Nc1nnc(-c2ccccc2O)cc1OCC12CC(C(=O)N3CCN(CCCCCOc4ccc5c(c4)C(=O)N(C4CCC(=O)NC4=O)C5=O)CC3)(C1)C2 (stereo not shown) [Compound 99, 5-((5-(4-(3-(((3-amino-6-(2-hydroxyphenyl)pyridazin-4-yl)oxy)methyl)bicyclo[1.1.1]pentane-1-carbonyl)piperazin-1-yl)pentyl)oxy)-2-(2,6-dioxopiperidin-3-yl)isoindoline-1,3-dione; formic acid] | < 50 | C (“C” indicates maximum degradation < 50%) |
| Nc1nnc(-c2ccccc2O)cc1OCC12CC(C(=O)NCCOCCOCCNc3ccc4c(c3)C(=O)N(C3CCC(=O)NC3=O)C4=O)(C1)C2 (stereo not shown) [Compound 66, 3-(((3-amino-6-(2-hydroxyphenyl)pyridazin-4-yl)oxy)methyl)-N-(2-(2-(2-((2-(2,6-dioxopiperidin-3-yl)-1,3-dioxoisoindolin-5-yl)amino)ethoxy)ethoxy)ethyl)bicyclo[1.1.1]pentane-1-carboxamide] | < 50 | C (“C” indicates maximum degradation < 50%) |
| Nc1nnc(-c2ccccc2O)cc1OCCC12CC(NC(=O)CCCCCCCCCCNc3cccc4c3C(=O)N(C3CCC(=O)NC3=O)C4=O)(C1)C2 (stereo not shown) [Compound 24, N-[3-(2-[[3-amino-6-(2-hydroxyphenyl)pyridazin-4-yl]oxy]ethyl)bicyclo[1.1.1]pentan-1-yl]-11-[[2-(2,6-dioxopiperidin-3-yl)-1,3-dioxoisoindol-4-yl]amino]undecanamide] | < 50 | C (“C” indicates maximum degradation < 50%) |
| Nc1nnc(-c2ccccc2O)cc1OCC12CC(C(=O)N3CCC4(CC3)CC(Oc3ccc5c(c3)C(=O)N(C3CCC(=O)NC3=O)C5=O)C4)(C1)C2 (stereo not shown) [Compound 53, 5-((7-(3-(((3-amino-6-(2-hydroxyphenyl)pyridazin-4-yl)oxy)methyl)bicyclo[1.1.1]pentane-1-carbonyl)-7-azaspiro[3.5]nonan-2-yl)oxy)-2-(2,6-dioxopiperidin-3-yl)isoindoline-1,3-dione] | < 50 | C (“C” indicates maximum degradation < 50%) |
